Experimental data taken from ChEMBL document CHEMBL4480448, “In Situ Ring Contraction and Transformation of the Rhizoxin Macrocycle through an Abiotic Pathway” (J Nat Prod, 2019).
Activity calls are given as the source filed them.

Assays:
Format in all cases: functional, cell-based
TC-32 = experiment: Cytotoxicity against human TC32 cells assessed as reduction in cell viability at 2 uM after 48 hrs by SRB assay
A673 = experiment: Cytotoxicity against human A673 cells assessed as reduction in cell viability at 2 uM after 48 hrs by SRB assay
SK-ES1 = experiment: Cytotoxicity against human SK-ES-1 cells assessed as reduction in cell viability at 2 uM after 48 hrs by SRB assay
Homo sapiens [1] = organism: Homo sapiens; experiment: Cytotoxicity against human SJCRH30 cells assessed as reduction in cell viability at 2 uM after 48 hrs by SRB assay
Homo sapiens [2] = organism: Homo sapiens; experiment: Cytotoxicity against human D283 cells assessed as reduction in cell viability at 2 uM after 48 hrs by SRB assay
Hep293TT = experiment: Cytotoxicity against human Hep293TT cells assessed as reduction in cell viability at 2 uM after 48 hrs by SRB assay

Measured: Activity

CO[C@@H](/C(C)=C/C=C/C(C)=C/c1coc(C)n1)[C@@H](C)[C@@H]1C[C@H](O)[C@@](C)(O)/C=C/[C@H](O)[C@@H](C)[C@H]2C[C@H](CC(=O)O2)C[C@@H]2O[C@H]2C(=O)O1
inactive: TC-32 | A673 | SK-ES1 | Homo sapiens [1] | Homo sapiens [2] | Hep293TT

CO[C@@H](/C(C)=C/C=C/C(C)=C/c1coc(C)n1)[C@@H](C)[C@@H]1C[C@H](O)[C@H](C(C)=O)/C=C/[C@@H](C)[C@H]2C[C@H](CC(=O)O2)C[C@@H]2O[C@H]2C(=O)O1
inactive: TC-32 | A673 | SK-ES1 | Homo sapiens [1] | Homo sapiens [2] | Hep293TT

CO[C@@H](/C(C)=C/C=C/C(C)=C/c1coc(C)n1)[C@@H](C)[C@@H]1C[C@H](O)[C@@](C)(O)[C@H](O)/C=C/[C@@H](C)[C@H]2C[C@H](CC(=O)O2)C[C@@H]2O[C@H]2C(=O)O1
inactive: TC-32 | A673 | SK-ES1 | Homo sapiens [1] | Homo sapiens [2] | Hep293TT

COC(=O)C[C@H]1C[C@@H](O)[C@H](C)[C@@H](O)/C=C/[C@](C)(O)[C@@H](O)C[C@@H]([C@H](C)[C@@H](OC)/C(C)=C/C=C/C(C)=C/c2coc(C)n2)OC(=O)[C@@H]2O[C@H]2C1
inactive: TC-32 | A673 | SK-ES1 | Homo sapiens [1] | Homo sapiens [2] | Hep293TT

CO[C@@H](/C(C)=C/C=C/C(C)=C/c1coc(C)n1)[C@@H](C)[C@@H]1C[C@H](O)[C@@](C)(O)[C@@H](O)/C=C/[C@@H](C)[C@H]2C[C@H](CC(=O)O2)C[C@@H]2O[C@H]2C(=O)O1
inactive: TC-32 | A673 | SK-ES1 | Homo sapiens [1] | Homo sapiens [2] | Hep293TT
